Reference: patent US20230210790A1, “GEL FOR USE IN GASTROINTESTINAL ENDOSCOPY AND ENDODERMAL, EPIDERMAL, AND OTHER MUCOSAL USES” (The Johns Hopkins University, priority 2020, published 2023)

Test system: bleeding ulcers in a live porcine model
Experiment: In vivo bleeding control by injectable gel, porcine bleeding model
Design: species or system Yorkshire pigs
Settings: 5 mL injected adjacent to bleeding ulcer
Description: To test the efficacy of epinephrine gels for bleeding control, a porcine bleeding model was created.
After ulcer creation, gel formulations or saline (negative control), epinephrine 1:10,000 (positive control) of 5 mL each were injected adjacent to the bleeding ulcer.

CNC[C@H](O)c1ccc(O)c(O)c1 [Epinephrine 1:10,000, Epinephrine]
No: Time at 5 min, bleeding present | Time at 10 min, bleeding present | Time at 15 min, bleeding present
